Reference: patent publication US20250313563A1, “GLYCOGEN SYNTHASE KINASE 3 INHIBITORS AND USES THEREOF” (The Broad Institute, Inc., priority 2022, published 2025)
Like-named read-outs stand apart in the source and are kept apart here.

What was measured:
[1] = biological target: GSK3α (GST-full length GSK3α) (Homo sapiens (Human), UniProt P49840); experiment: GSK3α TR-FRET kinase assay; format: biochemical
Method in brief: (§1)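 Readout: anti-pSer641 Tb antibody/streptavidin-d2 signal after 60 min, expressed as 665/615 ratio and fitted versus log concentration for IC50. Enzyme: 1 nM GST-GSK3 (α or β), compound-preincubated 30 min. Conditions: pH 7.5 Tris buffer with MgCl2, DTT, BSA; ATP at 4 or 2 μM, or 1 mM; 100 min.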

[2] = biological target: GSK3b (GST-full length GSK3b) (Homo sapiens (Human), UniProt P49841); experiment: GSK3b TR-FRET kinase assay; format: biochemical
Chain of GSK3b (GST-full length GSK3b) (P49841 whole entry): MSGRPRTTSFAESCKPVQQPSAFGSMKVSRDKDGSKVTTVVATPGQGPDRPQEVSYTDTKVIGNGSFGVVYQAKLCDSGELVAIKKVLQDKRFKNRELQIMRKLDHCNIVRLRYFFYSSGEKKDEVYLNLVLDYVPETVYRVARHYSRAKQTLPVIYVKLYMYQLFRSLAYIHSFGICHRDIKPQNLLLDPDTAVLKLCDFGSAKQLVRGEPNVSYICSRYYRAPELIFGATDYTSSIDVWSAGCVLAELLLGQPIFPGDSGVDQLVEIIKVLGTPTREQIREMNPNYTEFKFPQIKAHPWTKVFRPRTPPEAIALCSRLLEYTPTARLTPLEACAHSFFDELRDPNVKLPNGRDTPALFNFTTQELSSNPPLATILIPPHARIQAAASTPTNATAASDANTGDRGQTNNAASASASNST
Method in brief: as §1

[3] = 1 nM GSK3α, 4 μM ATP, 30 minute preincubation, geometric mean, read-out: GSK3-A TR-FRET BIOCHEMICAL (TR-FRET), GMean, IC50
[4] = read-out: GSK3-A (TR-FRET 1 mM ATP), GMean, IC50, 1 mM ATP, geometric mean
[5] = 1 nM GSK3b, 2 μM ATP, 30 minute preincubation, geometric mean, read-out: GSK3-B TR-FRET BIOCHEMICAL (TR-FRET), GMean, IC50
[6] = read-out: GSK3-B (TR-FRET 1 mM ATP), GMean, IC50, 1 mM ATP, geometric mean
[7] = 1 nM GSK3α, 4 μM ATP, 30 minute preincubation, Table 16, read-out: GSK3-A TR-FRET BIOCHEMICAL (TR-FRET)
[8] = 1 nM GSK3b, 2 μM ATP, 30 minute preincubation, Table 16, read-out: GSK3-B TR-FRET BIOCHEMICAL (TR-FRET)
[9] = 1 nM GSK3α, 4 μM ATP, 30 minute preincubation, read-out: GSK3-A TR-FRET BIOCHEMICAL (TR-FRET), IC50
[10] = 1 nM GSK3b, 2 μM ATP, 30 minute preincubation, read-out: GSK3-B TR-FRET BIOCHEMICAL (TR-FRET), IC50
[11] = GSK3-A (TR-FRET 1 mM ATP), GMean, IC50, 1 mM ATP, geometric mean
[12] = GSK3-B (TR-FRET 1 mM ATP), GMean, IC50, 1 mM ATP, geometric mean
[13] = 1 nM GSK3α, 4 μM ATP, 30 minute preincubation, Table 16, read-out: GSK3-A TR-FRET BIOCHEMICAL (TR-FRET), IC50
[14] = 1 nM GSK3b, 2 μM ATP, 30 minute preincubation, Table 16, read-out: GSK3-B TR-FRET BIOCHEMICAL (TR-FRET), IC50

Chain of GSK3α (GST-full length GSK3α) (P49840 whole entry): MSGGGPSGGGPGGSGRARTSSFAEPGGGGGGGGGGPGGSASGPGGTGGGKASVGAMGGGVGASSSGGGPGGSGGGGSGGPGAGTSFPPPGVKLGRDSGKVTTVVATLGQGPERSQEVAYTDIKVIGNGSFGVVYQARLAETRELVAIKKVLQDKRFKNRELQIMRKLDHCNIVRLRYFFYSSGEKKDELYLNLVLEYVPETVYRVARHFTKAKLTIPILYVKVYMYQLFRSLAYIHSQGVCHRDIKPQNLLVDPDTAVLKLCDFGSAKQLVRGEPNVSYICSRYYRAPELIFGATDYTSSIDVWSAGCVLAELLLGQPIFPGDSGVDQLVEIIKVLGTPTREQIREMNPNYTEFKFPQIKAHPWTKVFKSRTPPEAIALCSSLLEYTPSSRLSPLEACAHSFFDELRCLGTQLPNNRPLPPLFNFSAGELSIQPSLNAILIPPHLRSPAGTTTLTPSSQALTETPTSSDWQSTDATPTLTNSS

CCC1(c2cccc(-c3c(Cl)cncc3Cl)c2)C2=C(CC(C)(C)NC2=O)Nc2n[nH]cc21 (stereo not shown) [Compound 948515]
IC50 [1, 3]: ≤ 100 nM | IC50 [1, 4]: ≤ 100 nM | IC50 [2, 5]: ≤ 100 nM | IC50 [2, 6]: 100 to 1000 nM

CC1(C)CC(=O)C2=C(C1)Nc1n[nH]cc1C21CCN(S(=O)(=O)c2ccc(C(F)F)cc2)CC1 [Compound 947248]
IC50 [1, 7]: ≤ 100 nM | IC50 [2, 8]: ≤ 100 nM

CC1(C)CC(=O)C2=C(C1)Nc1n[nH]cc1C21COC2(CN(C(=O)Cc3ccccc3)C2)C1 (stereo not shown) [Compound 947306]
IC50 [1, 9]: ≤ 100 nM | IC50 [1, 4]: ≤ 100 nM | IC50 [2, 10]: ≤ 100 nM | IC50 [2, 6]: ≤ 100 nM

Cn1ccc(S(=O)(=O)N2CC3(C2)C2=C(CC(C)(C)CC2=O)Nc2n[nH]cc23)n1 [Compound 913260]
IC50 [1, 7]: ≤ 100 nM | IC50 [2, 8]: ≤ 100 nM

CC1(C)CC(=O)C2=C(C1)Nc1n[nH]cc1C2(C)c1cc(Cl)ccc1F (stereo not shown) [Compound 810377]
IC50 [1, 3]: 100 to 1000 nM | IC50 [2, 5]: 1000 to 5000 nM

CC[C@@]1(c2cccc(-c3cn[nH]c3)c2)C2=C(CC(C)(C)NC2=O)Nc2n[nH]c(C(F)(F)F)c21 [Compound 948312]
IC50 [1, 3]: ≤ 100 nM | IC50 [2, 5]: 100 to 1000 nM

CCC1(c2cccc(S(=O)(=O)CC3CC3)c2)C2=C(CC(C)(C)NC2=O)Nc2n[nH]cc21 (stereo not shown) [Compound 948177]
IC50 [1, 3]: ≤ 100 nM | IC50 [2, 5]: 100 to 1000 nM

Cc1ccccc1C(=O)N1CC2(C1)CC1(CO2)C2=C(CC(C)(C)CC2=O)Nc2n[nH]cc21 (stereo not shown) [Compound 947287]
IC50 [1, 9]: ≤ 100 nM | IC50 [2, 10]: 100 to 1000 nM

CC1(C)CC(=O)C2=C(C1)Nc1n[nH]cc1C21CCN(S(=O)(=O)c2ccc(OC(F)F)cc2)CC1 [Compound 947246]
IC50 [1, 7]: ≤ 100 nM | IC50 [1, 11]: ≤ 100 nM | IC50 [2, 8]: ≤ 100 nM | IC50 [2, 12]: 100 to 1000 nM

CC[C@]1(c2cc(N(C)C(C)=O)ccc2F)C2=C(CC(C)(C)CC2=O)Nc2n[nH]c(C)c21 [Compound 929451]
IC50 [1, 13]: > 5000 nM | IC50 [2, 14]: > 5000 nM

Cc1cnccc1[C@H]1CC[C@]2(CC1)C1=C(CC(C)(C)CC1=O)Nc1n[nH]cc12 [Compound 949319]
IC50 [1, 7]: ≤ 100 nM | IC50 [2, 8]: ≤ 100 nM

CC[C@@]1(c2cccc(-c3ccnn3C)c2)C2=C(CC3(CCCC3)NC2=O)Nc2n[nH]cc21 [Compound 948019]
IC50 [1, 3]: 1000 to 5000 nM | IC50 [2, 5]: > 5000 nM

CCC1(c2cccc(-c3cc(OC)ncc3F)c2)C2=C(CC(C)(C)CC2=O)Nc2n[nH]cc21 (stereo not shown) [Compound 944032]
IC50 [1, 7]: ≤ 100 nM | IC50 [1, 4]: 100 to 1000 nM | IC50 [2, 8]: ≤ 100 nM | IC50 [2, 6]: 1000 to 5000 nM

CC[C@]1(c2cccc(-c3cn(C)nc3C3CC3)c2)C2=C(CC(C)(C)NC2=O)Nc2n[nH]cc21 [Compound 951706]
IC50 [1, 13]: ≤ 100 nM | IC50 [2, 14]: ≤ 100 nM

CCC1(c2cccc(Oc3ncccn3)c2)C2=C(CC(C)(C)CC2=O)Nc2n[nH]cc21 (stereo not shown) [Compound 947400]
IC50 [1, 7]: ≤ 100 nM | IC50 [2, 8]: ≤ 100 nM

CC[C@@]1(c2cccc(-c3ccnnc3)c2)C2=C(CC(C)(C)CC2=O)Nc2n[nH]cc21 [Compound 929443]
IC50 [1, 13]: > 5000 nM | IC50 [2, 14]: > 5000 nM

CCC1(c2cccc(S(=O)(=O)C3CCOCC3)c2)C2=C(CC(C)(C)CC2=O)Nc2n[nH]cc21 (stereo not shown) [Compound 927344]
IC50 [1, 13]: ≤ 100 nM | IC50 [2, 14]: ≤ 100 nM

CC[C@@]1(c2cccc(C3CCC3)c2)C2=C(CC(C)(C)CC2=O)Nc2n[nH]cc21 [Compound 949521]
IC50 [1, 13]: ≤ 100 nM | IC50 [1, 4]: 100 to 1000 nM | IC50 [2, 14]: ≤ 100 nM | IC50 [2, 6]: 1000 to 5000 nM

COc1ccc(S(=O)(=O)N2CCC3(CC2)C2=C(CC(C)(C)CC2=O)Nc2n[nH]cc23)cc1 [Compound 901469]
IC50 [1, 11]: 100 to 1000 nM | IC50 [2, 12]: 100 to 1000 nM

CCN(C(C)=O)c1cccc([C@]2(CC)C3=C(CC(C)(C)CC3=O)Nc3n[nH]cc32)c1 [Compound 909214]
IC50 [1, 13]: ≤ 100 nM | IC50 [2, 14]: ≤ 100 nM

CC[C@]1(c2cccc(-c3ccnc(C)c3F)c2)C2=C(CC(C)(C)NC2=O)Nc2n[nH]cc21 [Compound 948306]
IC50 [1, 3]: ≤ 100 nM | IC50 [2, 5]: 100 to 1000 nM

CC1(C)CC(=O)C2=C(C1)Nc1n[nH]cc1C21COC2(CN(C(=O)c3ccccc3)C2)C1 (stereo not shown) [Compound 943956]
IC50 [1, 9]: 100 to 1000 nM | IC50 [2, 10]: 1000 to 5000 nM

CC[C@]1(c2cccc(-c3cnn(CCOC)c3)c2)C2=C(CC(C)(C)CC2=O)Nc2n[nH]c(C)c21 [Compound 913042]
IC50 [1, 13]: > 5000 nM | IC50 [2, 14]: > 5000 nM

Cc1cccc2c1CCC21C2=C(CC(C)(C)CC2=O)Nc2n[nH]cc21 (stereo not shown) [Compound 806603]
IC50 [1, 3]: ≤ 100 nM | IC50 [2, 5]: 100 to 1000 nM

CC[C@@]1(c2ccccc2)C2=C(Nc3n[nH]cc31)[C@@H](C)C[C@@H](C)C2=O [Compound 909216]
IC50 [1, 13]: 100 to 1000 nM | IC50 [2, 14]: 100 to 1000 nM

CC[C@]1(c2cccc(-c3cn[nH]c3)c2)C2=C(CC(C)(C)NC2=O)Nc2n[nH]c(C(F)(F)F)c21 [Compound 948307]
IC50 [1, 3]: ≤ 100 nM | IC50 [1, 4]: ≤ 100 nM | IC50 [2, 5]: ≤ 100 nM | IC50 [2, 6]: ≤ 100 nM

O=C1C[C@]2(CCOC2)CC2=C1C1(CCOCC1)c1c[nH]nc1N2 [Compound 901476]
IC50 [1, 7]: 100 to 1000 nM | IC50 [2, 8]: 100 to 1000 nM

CCC1(c2cccc(-c3cncn3C(C)C)c2)C2=C(CC(C)(C)CC2=O)Nc2n[nH]cc21 (stereo not shown) [Compound 945725]
IC50 [1, 4]: ≤ 100 nM | IC50 [2, 6]: 100 to 1000 nM

CCC1(c2cccc(N(C)c3ccccn3)c2)C2=C(CC(C)(C)CC2=O)Nc2n[nH]cc21 (stereo not shown) [Compound 874294]
IC50 [1, 3]: ≤ 100 nM | IC50 [2, 5]: 100 to 1000 nM

CN1CC2(C1)C1=C(CC(C)(C)CC1=O)Nc1n[nH]cc12 [Compound 913264]
IC50 [1, 7]: ≤ 100 nM | IC50 [2, 8]: ≤ 100 nM

CCC1(c2cccc(-c3cnn(-c4cnccn4)c3)c2)C2=C(CC(C)(C)NC2=O)Nc2n[nH]cc21 (stereo not shown) [Compound 952207]
IC50 [1, 13]: 100 to 1000 nM | IC50 [2, 14]: 1000 to 5000 nM

CC1(C)CC(=O)C2=C(C1)Nc1n[nH]cc1[C@]21CCO[C@H](C(C)(C)C)C1 [Compound 912112]
IC50 [1, 7]: 100 to 1000 nM | IC50 [2, 8]: 100 to 1000 nM

CCC1(c2cccc(C(F)(F)F)c2)C2=C(CC(C)CC2=O)Nc2n[nH]cc21 (stereo not shown) [Compound 810453]
IC50 [1, 3]: > 5000 nM | IC50 [2, 5]: > 5000 nM

CCC1(c2cccc(-c3cnn(C4CC4(F)F)c3)c2)C2=C(CC(C)(C)NC2=O)Nc2n[nH]cc21 (stereo not shown) [Compound 949393]
IC50 [1, 13]: 1000 to 5000 nM | IC50 [2, 14]: > 5000 nM

CC[C@]1(c2ccccc2)C2=C(Nc3n[nH]cc31)[C@H]1CC[C@H](C1)C2=O [Compound 791269]
IC50 [1, 7]: 100 to 1000 nM | IC50 [2, 8]: 100 to 1000 nM

CCC1(c2cccc(-c3ccncc3C)c2)C2=C(CC3(CCCC3)NC2=O)Nc2n[nH]cc21 (stereo not shown) [Compound 948021]
IC50 [1, 3]: 100 to 1000 nM | IC50 [2, 5]: > 5000 nM

CCC1(c2cccc(N(C)c3cccc(OC)n3)c2)C2=C(CC(C)(C)CC2=O)Nc2n[nH]cc21 (stereo not shown) [Compound 913121]
IC50 [1, 13]: ≤ 100 nM | IC50 [2, 14]: 100 to 1000 nM

CC[C@]1(C)C2=C(CC(C)(C)CC2=O)Nc2n[nH]cc21 [Compound 884019]
IC50 [1, 13]: 100 to 1000 nM | IC50 [2, 14]: 1000 to 5000 nM

CCC1(c2cccc(-c3c(C)cncc3C)c2)C2=C(CC(C)(C)CC2=O)Nc2n[nH]cc21 (stereo not shown) [Compound 945703]
IC50 [1, 7]: ≤ 100 nM | IC50 [2, 8]: ≤ 100 nM

CC1(C)CC(=O)C2=C(Nc3n[nH]cc3[C@]23CC[C@H](C(F)(F)F)CC3)C1F (stereo partly shown) [Compound 917136]
IC50 [1, 7]: ≤ 100 nM | IC50 [2, 8]: 100 to 1000 nM

CC1(C)CC(=O)C2=C(C1)Nc1n[nH]cc1C21CN(S(=O)(=O)c2ccccc2F)C1 [Compound 913263]
IC50 [1, 7]: 100 to 1000 nM | IC50 [2, 8]: 100 to 1000 nM
